Laboratory results published in patent US20260103474A1, “NOVEL COMPOUNDS FOR THE DIAGNOSIS OF TDP-43 PROTEINOPATHIES” (AC IMMUNE SA, priority 2022, published 2026).

How the values were obtained:
[1] = PK studies in healthy monkey (PET); format: in vivo; details: iv, Non-Human Primate; for Time of brain entry post injection / Washout: peak to half peak: whole brain
Procedure: Non-Human Primate (NHP) was injected intravenously (iv) with the [^18F]-labeled Compound 1 ([^18F]Compound 1) (4.2 mCi) or with the [^18F]-labeled Compound 17 ([^18F]-Compound 17) (5.3 mCi). Monkey PET scans were performed using a Siemens Focus 220. PET acquisition started immediately before the radioactive dose was injected. Images were generated as dynamic scans for 120 minutes with head focused.

[2] = molecular target: human FTD Type A sarkosyl-insoluble brain extracts (Homo sapiens, UniProt Q13148); assay: Kd determination by micro-radiobinding assay on FTD Type A extracts; format: binding; details: tritiated compound 1.29 to 300 nM
Procedure: (§1) Human brain extracts were prepared as described in Laferriere et al., 2019, Nature Neurosc. A sample of brain tissue (frontal or temporal cortex) was homogenized at 1:4 (w/v) ratio in the homogenization-solubilization (HS) buffer at 4° C. using tissue homogenizer (Precellys) with CKmix homogenization tubes. The following sequence was used for homogenization: 3 cycles of 30 seconds at 5000 rpm (with 15 seconds pause between each cycle). Homogenized samples were aliquoted and stored at −80° C. in 1.5 mL low protein binding tubes.
(§2) Brain homogenates were thawed on ice and resuspended in HS buffer to obtain a final concentration of 2% sarkosyl, 1 unit/μL Benzonase and 1 mM MgCl2. The samples were then incubated at 37° C. under constant shaking at 600 rpm on a thermomixer for 45 minutes (min). The supernatants were collected in a new tube (sarkosyl-soluble fraction, S1). The pellet was resuspended in 1000 μL of myelin floatation buffer and centrifuged at 20,000 g for 60 min at 4° C. The supernatant was carefully removed to remove all the floating lipids. This step was repeated if all the lipids could not be removed in a single step. The pellet was subsequently washed with Phosphate-Buffered Saline (PBS) and centrifuged for 30 min at 20,000 g at 4° C. The final pellet was resuspended in 200 μL PBS and stored at −80° C. (sarkosyl-insoluble fraction). The samples were analyzed by immunoblotting in denaturing conditions.
Human FTD sarkosyl-insoluble brain extracts were spotted onto microarray slides. The slides were incubated with [^3H]-Compounds 1, 7, 8, 9, 15, 16 and 17 in a range of concentrations, varying from 1.29 to 300 nM. After incubation, slides were washed and scanned by a real-time autoradiography system (BeaQuant, ai4R). Quantification of the signal was performed by using the Beamage image analysis software (ai4R). Non-specific signal was determined with an excess of non-radiolabeled compound 1, 7, 8, 9, 15, 16 and 17 (1 μM), respectively, and specific binding was calculated by subtracting the non-specific signal from the total signal.
The Kd (Dissociation constant) and R^2 (parameter ranging between 0.0 and 1.0 that quantifies the goodness of fit, and the best curve fit obtained with value of 1.0) were obtained by fitting the specific binding data with non-linear regression analysis, using a one-site specific binding model in GraphPad Prism8.

TDP-43 aggregates = TDP-43 aggregates (Homo sapiens, UniProt Q13148); assay: Classical autoradiography in brain sections from patients with FTD; format: binding
Procedure: All tissues were collected from donors for or from whom a written informed consent for a brain autopsy and the use of the material and clinical information for research purposes had been obtained by the respective brain banks. All samples were anonymized and coded. Frozen brain tissue blocks with confirmed TDP-43 pathology upon autopsy were processed using a cryotome to generate sections of 10 μm in thickness and mounted on glass slides. Sections were kept at −80° C. until use.
Brain sections were fixed for 15 minutes at 4° C. with 4% formaldehyde on ice and washed three times for eight minutes with 1×PBS at RT. Sections were blocked in assay buffer for 30 minutes (50 mM Tris-HCl, 0.9% NaCl+0.1% BSA). Cold test compound (Compound 1, Compound 8 or Compound 17) was diluted in assay buffer to 4 μM and applied on half of the sections for 40 minutes at RT to determine non-specific binding. The remaining half of the sections were only incubated with assay buffer (total binding). Following this incubation, an equal volume of the corresponding tritiated compound (i.e. [^3H]-Compound 1, [^3H]-Compound 8 or [^3H]-Compound 17, respectively), diluted to 20 nM (for [^3H]-Compound 1 and [^3H]-Compound 8) or 10 nM ([^3H]-Compound 17) or increasing concentration from 0.1 to 200 nM (for [^3H]-Compound 1 and [^3H]-Compound 17), was added on sections and incubated for 2 hours at RT and then washed as follows: once in ice-cold 50 mM Tris-HCl pH 7.4 buffer for one minute, twice in ice-cold PBS for one minute, once in ice-cold 50 mM Tris-HCl pH 7.4 buffer for one minute and finally rinsed briefly in ice-cold distilled water.
Sections were subsequently dried under a stream of air and mounted with a copper-based adhesive strip. Bound radioactivity was quantified by exposing the slides in a real-time autoradiography system (Beaquant™ AI4R) for 2 hours, with measurement settings configured for tritium. Beavacq software (AI4R) was used to acquire the image which was subsequently quantified using Beamage image analysis software (AI4R). Specific binding (non-specific binding subtracted from total) and displacement (total binding divided by non-specific) were calculated. Bar graphs were generated using GraphPad Prism. For Kd determination on brain sections, the specific binding data were fitted with a non-linear regression analysis using a one-site specific binding model in GraphPad Prism.

[3] = molecular target: T1, Human brain derived TDP-43 aggregates (Homo sapiens, UniProt Q13148); assay: Micro-radiobinding competition assay for binding affinity to TDP-43; details: for Ki: 0.24 nM to 2 μM vs tritiated reference ligand at 40 nM; for Human brain derived TDP-43 aggregates Mean % competition at 250 nM: non-radiolabeled compound at 250 nM vs tritiated reference ligand at 40 nM; for Human brain derived TDP-43 aggregates Mean % competition at 250 nM / Human brain derived TDP-43 aggregates Mean % competition at 2 μM: FTD sarkosyl-insoluble brain extracts; for Human brain derived TDP-43 aggregates Mean % competition at 2 μM: non-radiolabeled compound at 2 μM vs tritiated reference ligand at 40 nM
T1 construct: Human FTD sarkosyl-insoluble brain extracts were spotted onto microarray slides
Procedure: as §1, §2
Human FTD sarkosyl-insoluble brain extracts were spotted onto microarray slides. The slides were incubated with a tritiated reference ligand at 40 nM, and the example compounds (non-radiolabeled) at 2 μM and 250 nM. […] After incubation, slides were washed and scanned by a real-time autoradiography system (BeaQuant, ai4R). Quantification of the signal was performed by using the Beamage image analysis software (ai4R). Non-specific signal was determined with an excess of non-radiolabeled reference compound (2 μM) and specific binding was calculated by subtracting the non-specific signal from the total signal. Competition was calculated as percent, where 0% was defined as the specific binding in the presence of vehicle and 100% as the values obtained in the presence of excess of the non-radiolabeled reference compound. Ki values were calculated in GraphPad Prism8 by applying a nonlinear regression curve fit using a one site, specific binding model. Measurements were performed with at least two technical replicates in the two-concentration competition experiment and with one technical replicate in the experiments including a range of concentrations. For compounds tested in more than one experiment, the mean of the replicates or Ki values in independent experiments is reported.

Abeta = molecular target: T2, Abeta (Homo sapiens, UniProt P05067); assay: Radiobinding competition assay using Abeta reference compound on AD insoluble fraction of brain homogenates; format: binding; details: against [3H]Abeta reference compound; cells printed in μM; read-out: Ki on AD brain homogenates
T2 construct: an AD donor with confirmed burden of Tau and Abeta aggregates; from tissue; host or cells: frontal cortex of a human AD donor, Triton/sucrose-insoluble fraction
Procedure: Approximately 4 g of frozen tissue block from frontal cortex brain region was used from an AD donor with confirmed burden of Tau and Abeta aggregates. The tissue was homogenized in three volumes (1:3 w/v) of high salt buffer (50 mM Tris-HCl pH 7.5, 750 mM NaCl, 5 mM EDTA) supplemented with protease inhibitors (Complete; Roche 11697498001) at 4° C. with a glass Dounce homogenizer. The homogenate was transferred into polycarbonate centrifuge bottles (16×76 mm; Beckman 355603) and centrifuged at 100,000×g (38,000 RPM) in an ultracentrifuge (Beckman, XL100K) for 60 minutes at 4° C. using a pre-cooled 70.1 rotor (Beckman, 342184). Pellets were resuspended in high salt buffer supplemented with 1% Triton X-100 and homogenized at 4° C. with a syringe. The homogenates were centrifuged again at 100,000×g (38,000 RPM, 70.1 rotor) for 60 minutes at 4° C. Pellets were resuspended in high salt buffer supplemented with 1% Triton X-100 and 1 M sucrose and homogenized at 4° C. with a syringe. The homogenates were centrifuged at 100,000×g (38,000 RPM, 70.1 rotor) for 60 minutes at 4° C. The resulting pellets containing insoluble fraction were resuspended in PBS (1:2 w/v relative to starting tissue weight), aliquoted and stored at −80° C. until use.
The reaction was performed in assay buffer (50 mM Tris pH 7.5 in 0.9% NaCl, 0.1% BSA) and incubated for two hours at room temperature (RT). Samples in duplicate were then filtered under vacuum in GF/C filter plates (PerkinElmer) to trap the aggregates with the bound radioligand and washed with 100 μL ice-cold 50 mM Tris pH 7.5. The GF/C filters were then dried and scintillation liquid (UltimateGold, PerkinElmer, 6013151) was added in each well. The filters were analyzed on a Microbeta2 scintillation counter (PerkinElmer). Values for the maximal signal were obtained in the absence of non-radiolabeled compound, while 100% displacement was obtained using 1 μM of non-radiolabeled reference compound. Ki values were calculated by nonlinear regression, using a one site—fit Ki model in Prism V7 (GraphPad).

[4] = total binding divided by non-specific binding, grey matter, self-block with cold compound

T1 sequence (Q13148 261-414 limits assumed): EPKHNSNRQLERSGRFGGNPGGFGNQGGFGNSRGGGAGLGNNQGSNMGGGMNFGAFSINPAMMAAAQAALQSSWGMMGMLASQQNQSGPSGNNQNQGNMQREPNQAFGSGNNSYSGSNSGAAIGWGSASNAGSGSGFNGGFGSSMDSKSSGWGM
T2 sequence (P05067 672-713 limits assumed): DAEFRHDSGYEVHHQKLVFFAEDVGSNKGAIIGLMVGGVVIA
Sequence of TDP-43 aggregates (Q13148 whole entry): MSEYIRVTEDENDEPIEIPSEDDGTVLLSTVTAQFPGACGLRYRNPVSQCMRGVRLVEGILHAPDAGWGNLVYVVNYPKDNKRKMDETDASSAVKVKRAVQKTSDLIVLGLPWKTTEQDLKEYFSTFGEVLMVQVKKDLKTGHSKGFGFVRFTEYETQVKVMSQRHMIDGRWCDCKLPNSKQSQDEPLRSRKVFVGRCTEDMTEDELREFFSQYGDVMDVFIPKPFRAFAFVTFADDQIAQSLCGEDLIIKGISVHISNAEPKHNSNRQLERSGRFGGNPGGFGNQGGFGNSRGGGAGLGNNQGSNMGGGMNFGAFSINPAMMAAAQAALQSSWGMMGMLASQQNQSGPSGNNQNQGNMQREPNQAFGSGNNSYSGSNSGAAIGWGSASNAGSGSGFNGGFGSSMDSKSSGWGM
Sequence of human FTD Type A sarkosyl-insoluble brain extracts (Q13148 263-414 limits assumed): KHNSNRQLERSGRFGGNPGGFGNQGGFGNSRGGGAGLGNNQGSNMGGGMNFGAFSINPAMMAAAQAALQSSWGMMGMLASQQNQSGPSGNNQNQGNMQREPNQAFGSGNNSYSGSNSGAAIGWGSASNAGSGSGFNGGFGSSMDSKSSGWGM

Row | Kd [2] | Ki [3] | Human brain derived TDP-43 aggregates Mean % competition at 250 nM [3] | Human brain derived TDP-43 aggregates Mean % competition at 2 μM [3] | Ki (Abeta) | Structure (SMILES) | other results
1 |  |  |  |  |  | O=C1c2sc(-c3ccc(N4CC[C@@H]([18F])C4)nc3F)nc2CCN1c1cccnc1 [[^18F]-Compound 1, fluorinated 2-[2-fluoro-6-[(3R)-3-fluoropyrrolidin-1-yl]-3-pyridyl]-5-(3-pyridyl)-6,7-dihydrothiazolo[5,4-c]pyridin-4-one] | SUVmax whole brain [1]: 2.7 SUVmax; Time of brain entry post injection [1]: 5.5 min; Washout: peak to half peak [1]: < 17 min
2 |  |  |  |  |  | O=C1c2sc(-c3ccc(N4CCC(CO)CC4)nc3[18F])nc2CCN1c1cccnc1 [[^18F]-Compound 17, 2-(2-(fluoro-^18F)-6-(4-(hydroxymethyl)piperidin-1-yl)pyridin-3-yl)-5-(pyridin-3-yl)-6,7-dihydrothiazolo[5,4-c]pyridin-4(5H)-one] | SUVmax whole brain [1]: 1.1 SUVmax; Time of brain entry post injection [1]: 4.5 min; Washout: peak to half peak [1]: < 13 min
3 | 21 ± 7 nM |  |  |  |  | [3H]c1cnc(N2CCc3nc(-c4cc([3H])c(N5CC[C@@H](F)C5)nc4F)sc3C2=O)nc1 [[^3H]-Compound 15, Tritiated 2-[2-fluoro-6-[(3R)-3-fluoropyrrolidin-1-yl]-3-pyridyl]-5-pyrimidin-2-yl-6,7-dihydrothiazolo[5,4-c]pyridine-4-one] | 
4 | 39 ± 11 nM |  |  |  |  | [3H]c1cc(N2CCc3nc(-c4cc([3H])c(N5CC[C@@H](F)C5)nc4F)sc3C2=O)ccn1 [[^3H]-Compound 7, Tritiated (R)-2-(2-fluoro-6-(3-fluoropyrrolidin-1-yl)pyridin-3-yl)-5-(pyridin-4-yl)-6,7-dihydrothiazolo[5,4-c]pyridin-4(5H)-one] | 
5 | 47 ± 8 nM |  |  |  |  | [3H]c1cncc(N2CCc3nc(-c4cc([3H])c(N5CC[C@H](F)C5)nc4F)sc3C2=O)c1 [[^3H]-Compound 8, tritiated (S)-2-(2-fluoro-6-(3-fluoropyrrolidin-1-yl)pyridin-3-yl)-5-(pyridin-3-yl)-6,7-dihydrothiazolo[5,4-c]pyridin-4(5H)-one] | 
6 |  | 49 nM | 55% | 70% | > 1 µM | O=C1c2sc(-c3ccc(N4CCC[C@H](F)C4)nc3F)nc2CCN1c1ncccn1 [Compound 35] | 
7 |  | 11 nM | 62% | 86% | > 1 µM | O=C1c2sc(-c3ccc(N4CC[C@@H](F)C4)nc3F)nc2CCN1c1ncccn1 [Compound 15, 2-[2-fluoro-6-[(3R)-3-fluoropyrrolidin-1-yl]-3-pyridyl]-5-pyrimidin-2-yl-6,7-dihydrothiazolo[5,4-c]pyridine-4-one] | 
8 | 24 ± 3 nM |  |  |  |  | O=C1c2sc(-c3ccc(N4CC[C@H](F)C4)nc3F)nc2CCN1c1ncccn1 [[^3H]-Compound 16] | 

Row | Structure (SMILES) | Kd [2] | Ki [3] | Human brain derived TDP-43 aggregates Mean % competition at 250 nM [3] | Human brain derived TDP-43 aggregates Mean % competition at 2 μM [3] | Ki (Abeta) | other results
9 | O=C1c2sc(-c3ccc(N4CC[C@H](F)C4)nc3F)nc2CCN1c1cccnc1 [Compound 8, (S)-2-(2-fluoro-6-(3-fluoropyrrolidin-1-yl)pyridin-3-yl)-5-(pyridin-3-yl)-6,7-dihydrothiazolo[5,4-c]pyridin-4(5H)-one] |  | 73 nM | 55% | 73% | > 1 µM | Displacement on FTLD-TDP type A and B compared to non-demented control (TDP-43 aggregates; classical autoradiography): increased displacement; cARG displacement on FTLD-TDP Type A case (TDP-43 aggregates; [4]): 3.0; cARG displacement on FTLD-TDP Type B case (TDP-43 aggregates; [4]): 3.3; cARG displacement on non-demented control (TDP-43 aggregates; [4]): 2.3
